Literature values as cited in patent publication US12037623B2, “Enzymatic synthesis of 4′-ethynyl nucleoside analogs” (priority 2018, dated 2024).

What was measured:
[1] = tested on: HIV
[2] = tested on: HIV infection; settings: humanized mouse models and SIV infected rhesus macaque model
[3] = oral; mouse and rhesus monkey
[4] = tested on: SIV; settings: PBMC from rhesus macaque, 24 hr after drug administration
[5] = pbmc

absorption [3]	plasma concentrations [3]	SMILES	antiviral activity against clinical isolates ([1]; clinical isolates across all subtypes that have been evaluated)	antiretroviral activity ([1]; in-vitro HIV replication assays)	efficacy in animal models of HIV infection [2]	susceptibility of isolated PBMC to SIV infection [4]	intracellular half-life [5]
rapid absorption	high plasma concentrations	C#C[C@]1(CO)O[C@@H](n2cnc3c(N)nc(F)nc32)C[C@@H]1O [EFdA, 4′-ethynyl-2-fluoro-2′-deoxyadenosine]	comparable antiviral activity	potent antiretroviral	efficacy	refractory to SIV infection	
		C#C[C@]1(COP(=O)(O)OP(=O)(O)OP(=O)(O)O)O[C@@H](n2cnc3c(N)nc(F)nc32)C[C@@H]1O [EFdA-TP, EFdA Triphosphate]					exceeds 72 hrs
